Data on 20 compounds can be found in patent US10851073B2, “Protein tyrosine phosphatase inhibitors and methods of use thereof” (Calico Life Sciences LLC, priority 2019, dated 2020).

In assay [1] the target is T1, His tagged full-length PTPN1 protein (Homo sapiens, UniProt P18031).
T1 construct: made in house
T1 sequence (P18031 with tags, fused parts or gaps): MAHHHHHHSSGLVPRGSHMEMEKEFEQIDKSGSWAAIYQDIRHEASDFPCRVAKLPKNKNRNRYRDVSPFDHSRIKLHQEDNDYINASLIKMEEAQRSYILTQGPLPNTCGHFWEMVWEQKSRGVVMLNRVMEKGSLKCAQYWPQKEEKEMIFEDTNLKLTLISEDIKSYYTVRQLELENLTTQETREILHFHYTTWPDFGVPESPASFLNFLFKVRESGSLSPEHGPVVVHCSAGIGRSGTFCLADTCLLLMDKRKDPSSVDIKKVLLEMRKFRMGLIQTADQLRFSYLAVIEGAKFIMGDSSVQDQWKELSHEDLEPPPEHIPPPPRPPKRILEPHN
As to the kind of experiment: Mobility shift assay (MSA) used to determine potency of PTPN1 inhibitors. In kind it is biochemical. As to conditions: enzyme 0.5 nM, substrate 2 μM. The gist of the method: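 Full-length His-tagged human PTPN1 (0.5 nM) was preincubated 10 min at room temperature with compound (12-point, 1:3 dilution) in HEPES pH 7.5 buffer with EGTA, EDTA, Tween 20 and DTT. A 2 μM fluorescent phospho-insulin receptor peptide was then added for 10 min before quench. Mobility-shift % conversion gave % inhibition and IC50.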

Assay [2] has as its system B16F10 mouse melanoma cells. As to the kind of experiment: B16F10 IFNγ-induced cellular growth inhibition assay. As to conditions: B16-F10, with 0.5 ng/mL IFNγ, read-out: B16F10 GI IC50. In kind it is cell-based. The gist of the method: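 B16F10 cells grown in DMEM+10% FBS, with or without 0.5 ng/mL final mouse IFNγ, and dosed in triplicate at 100 μM to 0.001 μM final (0.1% DMSO). Confluence imaged every 6 h for 5 days; percent growth inhibition versus DMSO/with-IFNγ control taken once DMSO/no-IFNγ wells exceeded 95% confluence, giving IC50.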

Assay [3] deals with T2, His tagged PTPN2 (TC45) protein (Homo sapiens, UniProt P17706).
T2 construct: made in house
T2 sequence (P17706 with tags, fused parts or gaps isoform P17706-2): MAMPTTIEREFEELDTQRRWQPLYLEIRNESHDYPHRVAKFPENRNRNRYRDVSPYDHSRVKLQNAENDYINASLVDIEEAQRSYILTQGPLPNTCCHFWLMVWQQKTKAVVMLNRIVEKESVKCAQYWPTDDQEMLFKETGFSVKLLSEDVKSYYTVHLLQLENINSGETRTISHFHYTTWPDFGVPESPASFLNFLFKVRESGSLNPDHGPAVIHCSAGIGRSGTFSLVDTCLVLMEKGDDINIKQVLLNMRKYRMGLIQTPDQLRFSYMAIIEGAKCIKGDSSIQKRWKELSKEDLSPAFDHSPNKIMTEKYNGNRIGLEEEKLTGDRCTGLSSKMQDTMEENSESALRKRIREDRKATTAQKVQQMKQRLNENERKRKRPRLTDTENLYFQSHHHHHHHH
As to the kind of experiment: Mobility shift assay used to determine potency of PTPN2 inhibitors. In kind it is biochemical. As to conditions: enzyme 0.5 nM, substrate 2 μM; read-out: PTPN2 MSA IC50. The gist of the method:
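Microfluidic mobility-shift read-out (488/530 nm) of dephosphorylation of an OG488-tagged phosphotyrosine insulin receptor peptide, 2 μM, over 10 min at room temperature, after 10 min compound preincubation with 0.5 nM enzyme. Buffer: 50 mM HEPES pH 7.5, EGTA, EDTA, Tween 20, DTT. IC50 derived from % inhibition over 12-point 1:3 series.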

As to `CC(C)(O)CCOC1CCc2cc(O)c(N3CC(=O)NS3(=O)=O)c(F)c2C1` (stereo not drawn) [Compound 197, 5-[1-fluoro-3-hydroxy-7-(3-hydroxy-3-methylbutoxy)-5,6,7,8-tetrahydronaphthalen-2-yl]-1λ^6,2,5-thiadiazolidine-1,1,3-trione], the IC50 (commonly the point on the concentration scale where inhibition reaches its midpoint) was 10 to 100 nM in assay [1], 1 to 10 µM in assay [2] and 10 to 100 nM in assay [3].

Take `CO[C@@H]1CCc2cc(O)c(N3CC(=O)NS3(=O)=O)c(F)c2C1` (single isomer, unassigned) [Compound 104]: the results for the 50% inhibitory concentration (IC50) in assay [1], in assay [2] and in assay [3] were 10 to 100 nM, 10 to 100 µM and 10 to 100 nM, respectively.

Regarding `O=C1CN(c2c(O)cc3c(c2F)CC(NCCC(O)(C(F)(F)F)C(F)(F)F)CC3)S(=O)(=O)N1` (stereo not drawn) [Compound 130, 5-(1-fluoro-3-hydroxy-7-{[4,4,4-trifluoro-3-hydroxy-3-(trifluoromethyl)butyl]amino}-5,6,7,8-tetrahydronaphthalen-2-yl)-1λ^6,2,5-thiadiazolidine-1,1,3-trione], the IC50 lay within 1 to 10 nM in assay [1], 1 to 10 µM in assay [2] and 1 to 10 nM in assay [3].

With `O=C1CN(c2c(O)cc3c(c2F)CC(NCC(F)(F)CC2CC2)CC3)S(=O)(=O)N1` (stereo not drawn) [Compound 126, 5-{7-[(3-cyclopropyl-2,2-difluoropropyl)amino]-1-fluoro-3-hydroxy-5,6,7,8-tetrahydronaphthalen-2-yl}-1λ^6,2,5-thiadiazolidine-1,1,3-trione], the IC50 in assay [1] was in the range of 1 to 10 nM; in assay [2], 1 to 10 µM; in assay [3] it was 1 to 10 nM.

With `O=C1CN(c2c(O)cc3c(c2F)CC(OCCCC(F)(F)F)CC3)S(=O)(=O)N1` (stereo not drawn) [Compound 142, 5-[1-fluoro-3-hydroxy-7-(4,4,4-trifluorobutoxy)-5,6,7,8-tetrahydronaphthalen-2-yl]-1λ^6,2,5-thiadiazolidine-1,1,3-trione], the IC50 was 10 to 100 nM in assay [1], 10 to 100 µM in assay [2] and 1 to 10 nM in assay [3].

Turning to `O=C1CN(c2c(O)cc3c(c2F)CC(NCCC2(C(F)(F)F)CC2)CC3)S(=O)(=O)N1` (stereo not drawn) [Compound 124, 5-[1-fluoro-3-hydroxy-7-({2-[1-(trifluoromethyl)cyclopropyl]ethyl}amino)-5,6,7,8-tetrahydronaphthalen-2-yl]-1λ^6,2,5-thiadiazolidine-1,1,3-trione], the IC50 in assay [1] is 1 to 10 nM; in assay [2], below 1 µM; in assay [3] it was 1 to 10 nM.

With `CC(C)CCNCC1Cc2cc(O)c(N3CC(=O)NS3(=O)=O)c(F)c2C1` (stereo not drawn) [Compound 268, 5-(4-fluoro-6-hydroxy-2-{[(3-methylbutyl)amino]methyl}-2,3-dihydro-1H-inden-5-yl)-1λ^6,2,5-thiadiazolidine-1,1,3-trione], the half-inhibitory concentration (IC50) in assay [1] lay within 10 to 100 nM; in assay [2] it was 1 to 10 µM; in assay [3], 10 to 100 nM.

As for `O=C1CN(c2c(O)cc3c(c2F)C[C@@H]([C@@H]2CCNC2)CC3)S(=O)(=O)N1` (single isomer, unassigned) [Compound 136, 5-{(7RS)-1-fluoro-3-hydroxy-7-[(3RS)-pyrrolidin-3-yl]-5,6,7,8-tetrahydronaphthalen-2-yl}-1λ^6,2,5-thiadiazolidine-1,1,3-trione], the IC50 is 10 to 100 nM in assay [1], above 100 µM in assay [2] and 10 to 100 nM in assay [3].

For `CC(C)(O)CCNC1CCc2cc(O)c(N3CC(=O)NS3(=O)=O)c(F)c2C1` (stereo not drawn) [Compound 127, 5-{1-fluoro-3-hydroxy-7-[(3-hydroxy-3-methylbutyl)amino]-5,6,7,8-tetrahydronaphthalen-2-yl}-1λ^6,2,5-thiadiazolidine-1,1,3-trione], the IC50 in assay [1] was 1 to 10 nM; in assay [2], below 1 µM; in assay [3] it was 1 to 10 nM.

Consider `CC(C)C1CCN(C2CCc3cc(O)c(N4CC(=O)NS4(=O)=O)c(F)c3C2)C1` (stereo not drawn) [Compound 172, 5-{1-fluoro-3-hydroxy-7-[3-(propan-2-yl)pyrrolidin-1-yl]-5,6,7,8-tetrahydronaphthalen-2-yl}-1λ^6,2,5-thiadiazolidine-1,1,3-trione], for which the IC50 in assay [1] is 10 to 100 nM; in assay [2], 1 to 10 µM; in assay [3] it was 10 to 100 nM.

For the compound `CC(C)CCN[C@H]1CCc2cc(O)c(N3CC(=O)NS3(=O)=O)c(F)c2C1` (single isomer, unassigned) [Compound 117], the IC50 in assay [1] was 10 to 100 nM; in assay [2], 1 to 10 µM; in assay [3], 10 to 100 nM.

As for `O=C1CN(c2c(O)cc3c(c2F)CN(CCC2CC4CCC2O4)CC3)S(=O)(=O)N1` (stereo not drawn) [Compound 225, 5-{8-fluoro-6-hydroxy-2-[2-(7-oxabicyclo[2.2.1]heptan-2-yl)ethyl]-1,2,3,4-tetrahydroisoquinolin-7-yl}-1λ^6,2,5-thiadiazolidine-1,1,3-trione], the values for the IC50 in assay [1], in assay [2] and in assay [3] were 10 to 100 nM, 1 to 10 µM and 1 to 10 nM, respectively.

With `O=C1CN(c2c(O)cc3c(c2F)CC(N[C@H]2C[C@@H](OC(F)(F)F)C2)CC3)S(=O)(=O)N1` (stereo partly drawn) [Compound 235, 5-(1-fluoro-3-hydroxy-7-{[(1s,3s)-3-(trifluoromethoxy)cyclobutyl]amino}-5,6,7,8-tetrahydronaphthalen-2-yl)-1λ^6,2,5-thiadiazolidine-1,1,3-trione], the IC50 was 10 to 100 nM in assay [1], 1 to 10 µM in assay [2] and 10 to 100 nM in assay [3].

On to `O=C1CN(c2c(O)cc3c(c2F)C[C@@H](NCCC2CC2)CC3)S(=O)(=O)N1` (single isomer, unassigned) [Compound 134], for which the figures for the IC50 in assay [1], in assay [2] and in assay [3] were 10 to 100 nM, 1 to 10 µM and 10 to 100 nM, respectively.

As to `COC(C)(C)CCNC1CCc2cc(O)c(N3CC(=O)NS3(=O)=O)c(F)c2C1` (stereo not drawn) [Compound 122, 5-{1-fluoro-3-hydroxy-7-[(3-methoxy-3-methylbutyl)amino]-5,6,7,8-tetrahydronaphthalen-2-yl}-1λ^6,2,5-thiadiazolidine-1,1,3-trione], the IC50 in assay [1] was in the range of 10 to 100 nM; in assay [2], 1 to 10 µM; in assay [3] it was 1 to 10 nM.

In the case of `CCC(C)CCN[C@@H]1CCc2cc(O)c(N3CC(=O)NS3(=O)=O)c(F)c2C1` (stereo partly drawn) [Compound 203, 5-{(7R)-1-fluoro-3-hydroxy-7-[(3-methylpentyl)amino]-5,6,7,8-tetrahydronaphthalen-2-yl}-1λ^6,2,5-thiadiazolidine-1,1,3-trione], the IC50 is 1 to 10 nM in assay [1], below 1 µM in assay [2] and below 1 nM in assay [3].

In the case of `O=C1CN(c2c(O)cc3c(c2F)CC(OCC2CC2)CC3)S(=O)(=O)N1` (stereo not drawn) [Compound 107, 5-[7-(cyclopropylmethoxy)-1-fluoro-3-hydroxy-5,6,7,8-tetrahydronaphthalen-2-yl]-1λ^6,2,5-thiadiazolidine-1,1,3-trione], the IC50 lay in the range of 10 to 100 nM in assay [1], 10 to 100 µM in assay [2] and 10 to 100 nM in assay [3].

As to `O=C1CN(c2c(O)cc3c(c2F)CC(NCCC2CCCC2)CC3)S(=O)(=O)N1` (stereo not drawn) [Compound 178, 5-{7-[(2-cyclopentylethyl)amino]-1-fluoro-3-hydroxy-5,6,7,8-tetrahydronaphthalen-2-yl}-1λ^6,2,5-thiadiazolidine-1,1,3-trione], the IC50 in assay [1] was 1 to 10 nM; in assay [2] it was below 1 µM; in assay [3] it was below 1 nM.

`O=C1CN(c2c(O)cc3c(c2F)CC(NCC(O)CC(F)(F)F)CC3)S(=O)(=O)N1` (stereo not drawn) [Compound 156, 5-{1-fluoro-3-hydroxy-7-[(4,4,4-trifluoro-2-hydroxybutyl)amino]-5,6,7,8-tetrahydronaphthalen-2-yl}-1λ^6,2,5-thiadiazolidine-1,1,3-trione]: the IC50 in assay [1] is 1 to 10 nM; in assay [2], below 1 µM; in assay [3], 1 to 10 nM.

As for `O=C1CN(c2c(O)cc3c(c2F)CC(NCCC(F)(F)F)CC3)S(=O)(=O)N1` (stereo not drawn) [Compound 116, 5-{1-fluoro-3-hydroxy-7-[(3,3,3-trifluoropropyl)amino]-5,6,7,8-tetrahydronaphthalen-2-yl}-1λ^6,2,5-thiadiazolidine-1,1,3-trione], the IC50 in assay [1] was 10 to 100 nM; in assay [2], 1 to 10 µM; in assay [3], 10 to 100 nM.
